Measurements from a melting point compilation (Tetko et al.; mined from patent text by program, amines drawn as free bases though some values may be those of a salt).
Residues, ends and D or L forms follow the SMILES beside them. *: point of attachment. Boc = CC(C)(C)OC(=O)*; OBn = c1ccc(CO*)cc1; Bn = c1ccc(C*)cc1

melting point [°C] | Structure (SMILES)
38 | O=CC(=CCl)c1ccc(Cl)cc1
164 to 166 | COCc1cccc2oc(C(=O)O)c(C)c12
228 to 229 | CC(C)(CNC(=O)C(O)CO)c1ccc(C(=O)Nc2cn3cc(Cl)ccc3n2)cc1 (centres undefined)
30 to 35 | CCCCC(=O)OC1C=CC(OC(=O)CCCC)O1 (centres undefined)
112 to 113 | COc1ccc(C2CCN(C(=O)C(=O)O)CC2)cc1OC1CCCC1
337 | Oc1nc(Cc2ccccc2)nc(O)c1-c1ccccc1
83 to 85 | Cc1cccc(-c2ccc(NC(=O)OC(C)(C)C)c([N+](=O)[O-])c2)c1
202 to 205 | COc1ccc(NC(=O)c2sccc2S(=O)(=O)Nc2onc(C)c2Br)cc1
127 to 128 | C=Cc1ccc([Si](C)(C)C)c(C(=O)NCC)c1Cl
> 250 | O=C(O)c1cc([N+](=O)[O-])cc2c1Nc1cc(-c3ccccc3)ccc1O2
175 | O=C(NCc1ccccc1)c1ccccc1-c1ccccc1CNS(=O)(=O)c1cccc([N+](=O)[O-])c1
212 to 213 | O=C(CCl)Nc1ccc2c(c1NC(=O)c1ccno1)C(=O)c1ccccc1C2=O
200 to 202 | CCc1cc(Cc2cnc(N)nc2N)cc(CC)c1O
47 to 48 | c1ccc(Sc2ccc(Sc3ccccc3)s2)cc1
224 | CNC(=O)C(=Cc1cccc(-c2ccc(C)c(C)c2)c1)NC(C)=O
110 | COCCOc1cc(Oc2ccc(C(F)(F)F)cn2)ccc1CCCOc1cc(CCC(=O)O)n(C)n1
154 to 156 | COCc1c(-c2ccncc2)[nH]c(-c2ccncc2)c1C(C)=O
> 300 | N#Cc1cccc(-c2ccc3c(Cl)c[nH]c(=O)c3c2)c1
80 to 81 | CCCCOC(=O)CNC(=O)c1ncc(C(=O)OCCCC)cc1OC
53 to 55 | O=C1c2ccccc2C(=O)N1CCSCCc1ccco1
115 to 120 | CC(Cc1c[nH]c2ccccc12)(NC(=O)OC1C2CC3CC(C2)CC1C3)C(=O)NC(CC(=O)O)Cc1ccc(N)cc1 (centres undefined)
118 to 119 | Cc1cccc2c(-c3ccc(C(F)(F)F)cc3)onc12
108 to 110 | CC(=O)Nc1cc(C(F)(F)F)no1
110 to 112 | CC(C)(C)N1CC2(CCN(Cc3ccccc3)CC2)OC1=O
> 290 | COC(=O)c1ccc(Cn2nc(O)c3[nH]c4cc(Cl)ccc4c(=O)c3c2=O)cc1
218 | Cc1ccccc1C(=C1CN(C(c2ccccc2)c2ccccc2)C1)S(C)(=O)=O

melting point [°C] | Structure (SMILES)
191 to 192 | Cn1nccc(N)c1=O
> 250 | CNCC1Cc2cc(-c3ccccc3)cc(-c3ccc(C)cc3)c2O1 (centres undefined)
46 to 48 | Cc1cccc2c(Cl)cc(C(F)(F)Cl)nc12
193 to 195 | CN1CCC(NC(=O)Nc2ccccc2CCc2cc(C(C)(C)C)c(O)c(C(C)(C)C)c2)CC1
121 to 122 | CNC(=O)C(N)C(N)=O (centres undefined)
83 to 84 | O=C(OCc1cc(F)nc(F)c1)c1ccccc1
225 to 227 | COc1ccn2c(Cl)c(CCc3ccc4nc(N)oc4c3)nc2c1
135 | COc1ccc(Oc2cc(N)c(F)cc2C#N)cc1
315 | CN(Cc1ccco1)C1=N/C(=C\c2c[nH]c3ncc(Cl)cc23)C(=O)N1
138 to 148 | COC(=O)Nc1cc(Oc2ccc3c(C(=O)Nc4ccc(CN5CCNCC5)c(C(F)(F)F)c4)cccc3c2)ncn1
73 to 74 | CCCCC(CC)n1nnc2c(Nc3ccc(C(C)C)cc3Br)nc(C)cc21 (centres undefined)
170 | O=C(OCCO)c1nc(Cl)c(Cl)[nH]1
139 to 141 | CC(=O)OCCn1cc(C(N)=O)c([N+](=O)[O-])n1
108 | CC(C)(C)CC(C)(C)Nc1cc(Cl)ccc1[N+](=O)[O-]
216 to 217 | COC(=O)c1ccc(/C=C/c2nc(-c3ccc4ccccc4c3)oc2C)cc1
125 to 127 | Sc1c(Br)cc(Br)c(Br)c1S
150 | COc1ccc(NCCNc2ccc([N+](=O)[O-])cc2)cc1
78 to 82 | CCCC(=O)C(=CNc1ccccc1COC(=O)c1ccccc1)C(=O)OCC
27 to 28 | Cc1ccc(S(=O)(=O)OCCCCCCCl)cc1
246 | Cc1cccc(-c2sc(N)nc2-c2ccnc(-c3ccc(N4CCOCC4)cc3)c2)n1
103 to 104 | COc1ccc(C#N)c(C=C(C)N(C)C)n1
128 to 131 | NS(=O)(=O)c1ccccc1Cn1cncn1
122 to 124 | COC(=O)c1ccc([N+](=O)[O-])cc1S(=O)(=O)NC(C)(C)C
214 to 215 | CC(=O)c1ccc(OC(=O)c2c3ccccc3nc3ccccc23)cc1
137 | Cc1ccc(S(=O)(=O)N2[C@@H](C(N)=O)CC[C@H]2c2ccc(F)cc2)cc1 (racemic)
130 to 131 | CC(=O)Oc1c(C)cc(C)cc1CCc1cc(C)cc(C)c1OC(C)=O

melting point [°C] | Structure (SMILES)
166 to 167 | O=c1ccn([C@@H]2C(F)=C(CCO)[C@@H](O)[C@H]2O)c(=O)[nH]1
78 to 80 | CCCCCCCS(=O)(=O)Oc1c(I)cc(I)cc1I
219 to 221 | Cn1c(COc2ccc(C=O)cc2)nc2ccc(Sc3cc(C(C)(C)C)c(O)c(C(C)(C)C)c3)cc21
73 to 74 | Cc1oc2cc(C=O)ccc2c1C
58 to 59 | COc1cc(C=O)cc2c1OC(C)(C)C2
285 to 287 | CC(C)CNC(=O)c1c[nH]c2ncc(-c3nn(C)c4cc(F)ccc34)nc12
110 | O=C(Cc1ccc(-n2ccnc2)cc1)NOc1ccccn1
63 | CCCC12CCC(c3ccc(C#N)c(F)c3)(CC1)CC2
177 to 178 | COc1nc(OC)nc(Oc2cccc3c2C(=S)OC3C)n1 (centres undefined)
285 to 290 | N#Cc1ccc(-c2cn(-c3ccc(I)cc3)c(S)n2)cc1
167 to 168 | COc1ccc(N2CCN(Cc3n[nH]c4ccccc34)CC2)cc1
98 | COc1ccc(S(=O)(=O)C(C)(Cc2cccnc2)C(=O)NO)cc1 (centres undefined)
95 to 118 | CC12CC(F)C3c4ccc(O)cc4CC(CCCCCN4CCCC4)C3C1CCC2O (centres undefined)
40 to 41 | COc1cc([N+](=O)[O-])cnc1Cl
133 to 134 | CC(=NOCCO)c1ccc(-c2ccc(F)cc2)cc1
98 | CCCCCCCOC(=O)CON=c1c2nccc3cccc(c32)n2cccc12
183 to 185 | Cc1ccn(-c2ccc(C(=O)N3Cc4cccnc4Nc4ccccc43)c(C(F)(F)F)c2)n1
109 to 112 | Cn1cc(-c2cccc(C(F)(F)F)c2)c(=O)c(-c2ccc(Cl)c(Cl)c2)c1
297 to 299 | Cc1c2c(cc3c(=O)c4ccccc4oc13)CC(C(=O)O)O2 (centres undefined)
76 to 78 | CCc1nc2ccc3c(c2o1)C(CCNC(C)=O)CC3 (centres undefined)
232 to 235 | CC(C)NCC(O)COc1ccc2cn[nH]c(=O)c2c1 (centres undefined)
144 | CCCC1=NN(c2cccnc2)C(=O)C1=CNc1ccccc1CC
187 to 190 | O=C(C1CCCCC1)N1CC(=O)N2CCCc3ccccc3C2C1 (centres undefined)
118 to 126 | Cc1cc(F)ccc1-c1ccc(S(=O)(=O)N2c3ccccc3CC2C(=O)NCc2ccccc2NCCC(=O)O)cc1 (centres undefined)
155 to 156 | Cn1ccnc1N1CCC(c2ccc([N+](=O)[O-])cc2)CC1
101 to 103 | CCOC(=O)COc1cc2cc(C(C)O)sc2c(Cl)c1Cl (centres undefined)

melting point [°C] | Structure (SMILES)
123 to 134 | CC(C)(C)OC(=O)N1CCC(CS(=O)Cc2cc(C(F)(F)F)cc(C(F)(F)F)c2)(c2ccccc2)CC1 (centres undefined)
> 310 | COc1cc2nc(-c3n[nH]cc3NC(=O)N3CCCCC3)[nH]c2cc1Cl
101 to 103 | CC(=O)c1ccc(OCCCCl)c(O)c1
155 to 158 | Cc1nc(N2CCc3ccccc3CC2)c(C#N)c(=O)n1C
152 to 153 | Cn1ccnc1-c1ccccc1N
86 to 87 | CCCCCCCCCCC[C@@H]1CC(O)=CC(=O)O1
168 to 169 | CCCCNC(=O)NS(=O)(=O)c1ccn(C)n1
188 | CC(C)(C)OC(=O)CCNC1(c2ccccc2Cl)C(=O)Nc2ccc(Cl)cc21 (centres undefined)
120 to 122 | CC(C)(C)OC(=O)N1CCC(c2ccc(N3C[C@H](CO)OC3=O)cc2F)CC1
130 to 132 | O=Cc1cc(Cc2cccnc2)ccc1O
163 to 165 | CCC(S)=C1SC(=S)N(c2ccc(Cl)cc2)C1=O
190 to 191 | CN1CCCc2cc(Cc3cnc(N)nc3N)ccc21
179 to 180 | COc1ccc(C2CC(=O)N(c3ccncc3)C2=O)cc1 (centres undefined)
94 to 97 | CCCCCCN(C)c1ccc(C=C2SC(=S)N(CC(=O)NS(=O)(=O)C(F)(F)F)C2=O)cc1
111 | CCc1nc2ccc(Br)cc2c2ccc(F)cc12
90 | CCCOc1cccc(C(NC2CCN(C)CC2)c2nc3ccccc3s2)c1 (centres undefined)
222 to 223 | NC(=O)N1Cc2c(-c3ccc(F)cc3)ncn2-c2ccccc21
170 to 173 | CS(=O)c1ncc2ccc(=O)n(C3CCCC3)c2n1 (centres undefined)
85 to 87 | CSC(=NCCSCc1ccsn1)NC#N
114 to 116 | CC(C)CC(NC(=O)C(Cc1ccc(OCc2ccccc2)cc1)NC(=O)OC(C)(C)C)C(=O)NCC(=O)OCc1ccccc1 (stereo not drawn) (Boc-Tyr(Bn)-Leu-Gly-OBn; configuration not given here)
143 | CC(=O)NC1C(Cl)OC(COC(C)=O)C(OC(C)=O)C1OC(C)=O (centres undefined)
141 to 142 | COc1cccc2c(=O)c(-c3cccc(C(F)(F)F)c3Cl)nn(Cc3ccc(F)cc3F)c12
167 to 169 | CC(C)c1ccc(-c2ccc(F)cc2)n1C(C)CC1CC(O)CC(=O)O1 (centres undefined)

Structure (SMILES) | melting point [°C]
CC1CC2=CC(=O)CCC2C2C(F)CC3(C)C(=O)CCC3C12 (centres undefined) | 84.8
CN1CC(C(=O)NC2NCCS2)CC2c3ccc(C(C)(C)C)c4[nH]cc(c34)CC21 (centres undefined) | 243 to 247
Fc1cccc(-c2cn([C@H]3CN4CCC3CC4)nn2)c1 | 120
